Results reported in ChEMBL document CHEMBL1136152, “Synthesis and antioxidant efficiency of a new amphiphilic spin-trap derived from PBN and lipoic acid” (Bioorg Med Chem Lett, 2003).

How the values were obtained:
Assay type in all cases: functional
[1] = In vitro half-hemolysis time at the concentration of 100 uM
[2] = In vitro half-hemolysis time at the concentration of 500 uM
[3] = In vitro half-hemolysis time at the concentration of 50 uM
[4] = In vitro half-hemolysis time at the concentration of 200 uM
[5] = In vitro half-hemolysis time at the concentration of 500 uM with LAMPBN to LGT molar ratio = 1/1
[6] = In vitro half-hemolysis time at the concentration of 200 uM with LAMPBN to LGT molar ratio = 0.67/1.33
[7] = In vitro half-hemolysis time at the concentration of 200 uM with LAMPBN to LGT molar ratio = 1/1
[8] = In vitro half-hemolysis time at the concentration of 500 uM with LAMPBN to LGT molar ratio = 0.67/1.33
[9] = In vitro half-hemolysis time at the concentration of 50 uM with LAMPBN to LGT molar ratio = 1/1
[10] = In vitro half-hemolysis time at the concentration of 50 uM with LAMPBN to LGT molar ratio = 1.33/0.67
[11] = In vitro half-hemolysis time at the concentration of 50 uM with LAMPBN to LGT molar ratio = 0.67/1.33
[12] = In vitro half-hemolysis time at the concentration of 100 uM with LAMPBN to LGT molar ratio = 1.33/0.67
[13] = In vitro half-hemolysis time at the concentration of 200 uM with LAMPBN to LGT molar ratio = 1.33/0.67
[14] = In vitro half-hemolysis time at the concentration of 100 uM with LAMPBN to LGT molar ratio = 0.67/1.33
[15] = In vitro half-hemolysis time at the concentration of 500 uM with LAMPBN to LGT molar ratio = 1.33/0.67
[16] = In vitro half-hemolysis time at the concentration of 100 uM with LAMPBN to LGT molar ratio = 1/1

## CC(C)(COC(=O)NCCCNC(=O)CCCCC1CCSS1)/[N+]([O-])=C/c1ccc(CNC(=O)[C@H](O)[C@@H](O)[C@H](O[C@@H]2O[C@@H](CO)[C@H](O)[C@H](O)[C@@H]2O)[C@H](O)CO)cc1 (stereo partly specified)
[1]
  HT50: 82.9%
[2]
  HT50: 167%
[3]
  HT50: 49%
[4]
  HT50: 135%

## CC(C)(C)/[N+]([O-])=C/c1ccc(CNC(=O)[C@H](O)[C@@H](O)C(O[C@@H]2O[C@@H](CO)[C@H](O)[C@H](O)[C@@H]2O)[C@H](O)CO)cc1.O=C(CCCCC1CCSS1)NCC(=O)NC(CO)(CO)CO (stereo partly specified)
[5]
  HT50: 86.5%
[6]
  HT50: 62%
[7]
  HT50: 53.7%
[8]
  HT50: 88.6%
[9]
  HT50: 44.6%
[10]
  HT50: 41.5%
[11]
  HT50: 56.6%
[12]
  HT50: 47.4%
[13]
  HT50: 49.8%
[14]
  HT50: 60.8%
[15]
  HT50: 86.3%
[16]
  HT50: 51.6%
